What was measured:
Assay in all cases: Greenhouse herbicidal activity, post-emergence
Assay type in all cases: in vivo
Details in all cases: application rate 0.0156 or 0.0078 kg of a.i./ha
[1] = system: Solanum nigrum
Excerpt: (§1) The culture containers used were plastic flower pots containing loamy sand with approximately 3.0% of humus as the substrate. The seeds of the test plants were sown separately for each species.
(§2) For the post-emergence treatment, the test plants were first grown to a plant height of 3 to 15 cm, depending on the growth form, and only then treated with the active ingredients which were suspended or emulsified in water. The test plants were either sown directly and grown in the same containers, or grown separately as seedlings and transplanted to the test containers a few days prior to treatment. The application rate for the post-emergence treatment was 0.0156 or 0.0078 kg of a.i. (active ingredient) per ha.
(§3) The plants were kept at from 10-25° C. or 20-35° C., depending on the species. The test period extended to 2-4 weeks. During this time, the plants were tended and their response to individual treatments was evaluated.
(§4) Evaluation was carried out using a scale from 0 to 100. 100 means no emergence of the plants, or complete destruction of at least the aerial parts, and 0 means no damage or normal course of growth.
(§5) The plants used for the greenhouse experiments were the following species: […]

[2] = system: Abutilon theophrasti
Excerpt: as §1, §2, §3, §4, §5

[3] = system: Galium aparine
Excerpt: as §1, §2, §3, §4, §5

[4] = system: Ipomoea subspecies
Excerpt: as §1, §2, §3, §4, §5

COc1cc(-n2c(=O)cc(C(F)(F)F)n(N)c2=O)ccc1C#N [Compound No. I.02, 1-Amino-3-[4-cyano-3-methoxyphenyl]-6-trifluoromethyl-1,2,3,4-tetrahydropyrimidine-2,4-dione]
very effective: herbicidal action against Solanum nigrum (black nightshade) [1] | herbicidal action against Abutilon theophrasti (velvet leaf) [2] | herbicidal action against Galium aparine (catchweed bedstraw) [3] | herbicidal action against Ipomoea subspecies (morningglory) [4]
